Laboratory results reported in patent US9540343B2 (Gilead Sciences, Inc., priority 2011, dated 2017).

Legend:
HIV-IIIb = experiment: Test A: Antiviral assay in MT4 cells; type: cell-based, HIV-1; settings: MT-4 cells infected with HIV-IIIb, 5 days, CellTiter-Glo; for % inhibition at 2 μM: percent inhibition of virus-induced cell killing, from dose response curve at 2 uM drug; for inhibition at 2 µM: Human immunodeficiency virus 1, IIIB, MT4, 120 h, read-out: % inhibition at 2 μM, percent inhibition of virus-induced cell killing, from dose response curve at 2 uM drug
MT-4 cells = experiment: in vitro; settings: uninfected MT-4 cells, same protocol as Test A, 5 days, CellTiter-Glo
In short: (§1)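 Cytoprotection read-out: CellTiter-Glo chemiluminescence after 5 days at 37 °C of HIV-IIIb-infected MT-4 cells (m.o.i. 0.003) with compound in 10-point 3-fold dilutions, quadruplicate, 10% FBS. Cytotoxicity (CC50) measured identically without virus.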

in vitro = settings: human, uninfected MT-4 cells, CC50 (nM), same protocol as Test A, CellTiter-Glo
In short: as §1

Row | Compound | % inhibition at 2 μM (HIV-IIIb) | CC50 (MT-4 cells) | inhibition at 2 µM (HIV-IIIb) | CC50 at 5 days (in vitro)
1 | O=C(N[C@@H](Cc1cc(F)cc(F)c1)c1ncccc1-c1ccc(Cl)cc1)C(c1c[nH]c2ccc(F)cc12)C(F)(F)F (single isomer, unassigned) [Example 36G] | 0% | 6.93 µM | – | –
2 | NC(=O)c1cc(-c2cccnc2[C@H](Cc2cc(F)cc(F)c2)NC(=O)Cn2nc(C(F)(F)F)c3c2[C@H]2C[C@H]2C3)ccc1F (single isomer, unassigned) [Example 186] | 80% | 16.8 µM | – | –
3 | NC(=O)c1cc(-c2cccnc2[C@H](Cc2cc(F)cc(F)c2)NC(=O)Cn2nc(C(F)F)c3c2CC2CC32)ccc1F (single isomer, unassigned) [Example 249] | 100% | 23.4 µM | – | –
4 | O=C(Cn1nc(C(F)F)c2c1C1CC1CC2)NC(Cc1cc(F)cc(F)c1)c1ncncc1-c1cnc2[nH]ccc2c1 (single isomer, unassigned) [Example 347] | 1% | 19.4 µM | – | –
5 | O=C(Cn1nc(C(F)F)c2c1C1CC1CC2)NC(Cc1cc(F)cc(F)c1)c1ncncc1-c1cnc2[nH]ccc2c1 (single isomer, unassigned) [Example 348] | 103% | 14.2 µM | – | –
6 | CCC(C(=O)N[C@@H](Cc1cc(F)cc(F)c1)c1ncccc1-c1ccc(F)c(C(N)=O)c1)n1nc(C(F)F)cc1C(F)F (single isomer, unassigned) [Example 484] | 25% | 27.4 µM | – | –
7 | CCCCC(C(=O)N[C@@H](Cc1cc(F)cc(F)c1)c1ncccc1-c1ccc(F)c(C(N)=O)c1)n1ccc(C(F)(F)F)n1 (single isomer, unassigned) [Example 488] | 8% | 12.4 µM | – | –
8 | CCC(C(=O)N[C@@H](Cc1cc(F)cc(F)c1)c1ncccc1-c1ccc(F)c(C(N)=O)c1)n1nc(C(F)(F)F)c2c1CCCC2 (single isomer, unassigned) [Example 531] | 98% | 7.4 µM | – | –
9 | CCC(C(=O)N[C@@H](Cc1cc(F)cc(F)c1)c1ncccc1-c1ccc(F)c(C(N)=O)c1)n1nc(C(F)(F)F)c2c1CCCC2 (single isomer, unassigned) [Example 532] | 9% | 12.2 µM | – | –
10 | NC(=O)c1cc(-c2cccnc2[C@H](Cc2cc(F)cc(F)c2)NC(=O)C(c2ccccc2)C2CCCC2)ccc1F (single isomer, unassigned) [Example 552] | 8% | 11 µM | – | –
11 | CCC(C(=O)N[C@@H](Cc1cc(F)cc(F)c1)c1ncccc1-c1ccc(F)c(C(N)=O)c1)n1cc(C(F)(F)F)cn1 (single isomer, unassigned) [Example 566] | 3% | 23.7 µM | – | –
12 | Cc1cc2ncn(C(CC(F)(F)F)C(=O)N[C@@H](Cc3cc(F)cc(F)c3)c3ncccc3-c3ccc(F)c(C(N)=O)c3)c2cc1C (single isomer, unassigned) [Example 571] | 2% | 34.8 µM | – | –
13 | CCC(C(=O)N[C@@H](Cc1cc(F)cc(F)c1)c1ncccc1-c1ccc(F)c(C(N)=O)c1)n1ccc(C(F)(F)F)n1 (single isomer, unassigned) [Example 573] | 18% | 30.1 µM | – | –
14 | CC(C)CC(C(=O)N[C@@H](Cc1cc(F)cc(F)c1)c1ncccc1-c1ccc(F)c(C(N)=O)c1)n1ccc(C(F)(F)F)n1 (single isomer, unassigned) [Example 582] | 5% | 14.4 µM | – | –
15 | CCC(C(=O)N[C@@H](Cc1cc(F)cc(F)c1)c1ncccc1-c1ccc(F)c(C(N)=O)c1)n1ccnc1C(C)C (single isomer, unassigned) [Example 586] | 1% | > 53.2 µM | – | –
16 | CN(C)C(C(=O)N[C@@H](Cc1cc(F)cc(F)c1)c1ncccc1-c1ccc(F)c(C(N)=O)c1)c1ccc(F)cc1 (single isomer, unassigned) [Example 590] | 13% | 38.6 µM | – | –
17 | Cc1cc2[nH]cc(CC(=O)N[C@@H](Cc3cc(F)cc(F)c3)c3ncccc3-c3cccc(C(N)=O)c3)c2cc1O [Example 593, (S)-3-(2-(2-(3,5-difluorophenyl)-1-(2-(5-hydroxy-6-methyl-1H-indol-3-yl)acetamido)ethyl)pyridin-3-yl)benzamide] | – | – | 52% | > 53000 nM
18 | NC(=O)c1cccc(-c2cccnc2[C@H](Cc2cc(F)cc(F)c2)NC(=O)Cn2ccc3cc(F)c(F)cc32)c1 [Example 594B, (S)-3-(2-(1-(2-(5,6-difluoro-1H-indol-1-yl)acetamido)-2-(3,5-difluorophenyl)ethyl)pyridin-3-yl)benzamide] | – | – | 12% | 13400 nM
19 | O=C(Cn1nc(C(F)(F)F)c2c1CC1CC21)N[C@@H](Cc1cc(F)cc(F)c1)c1ncccc1-c1cnc2[nH]ccc2c1 (stereo partly drawn) [Example 595, N—((S)-1-(3-(1H-pyrrolo[2,3-b]pyridin-5-yl)pyridin-2-yl)-2-(3,5-difluorophenyl)ethyl)-2-(3-(trifluoromethyl)-3b,4,4a,5-tetrahydro-1H-cyclopropa[3,4]cyclopenta[1,2-c]pyrazol-1-yl)acetamide] | – | – | 99% | 12700 nM
20 | NC(=O)c1cccc(-c2cccnc2[C@H](Cc2cc(F)cc(F)c2)NC(=O)Cc2c[nH]c3ccc(C(F)(F)F)cc23)c1 [Example 596, (S)-3-(2-(2-(3,5-difluorophenyl)-1-(2-(5-(trifluoromethyl)-1H-indol-3-yl)acetamido)ethyl)pyridin-3-yl)benzamide] | – | – | 96% | 10900 nM
21 | Cc1[nH]c2ccc(F)cc2c1CC(=O)N[C@@H](Cc1cc(F)cc(F)c1)c1ncccc1-c1ccc(Cl)cc1 [Example 597, (S)—N-(1-(3-(4-chlorophenyl)pyridin-2-yl)-2-(3,5-difluorophenyl)ethyl)-2-(5-fluoro-2-methyl-1H-indol-3-yl)acetamide] | – | – | 89% | 8650 nM
22 | COC1CN(C(=O)c2cc(C(C)C)nn2CC(=O)N[C@@H](Cc2cc(F)cc(F)c2)c2ncccc2-c2ccc(F)c(C(N)=O)c2)C1 [Example 598, (S)-5-(2-(2-(3,5-difluorophenyl)-1-(2-(3-isopropyl-5-(3-methoxyazetidine-1-carbonyl)-1H-pyrazol-1-yl)acetamido)ethyl)pyridin-3-yl)-2-fluorobenzamide] | – | – | 3% | > 53200 nM
23 | NC(=O)c1cc(-c2cccnc2[C@H](Cc2cc(F)cc(F)c2)NC(=O)Cn2c(C(F)(F)F)cc3ccccc32)ccc1F [Example 599, (S)-5-(2-(2-(3,5-difluorophenyl)-1-(2-(2-(trifluoromethyl)-1H-indol-1-yl)acetamido)ethyl)pyridin-3-yl)-2-fluorobenzamide] | – | – | 2% | 31600 nM
24 | Cc1nc2n(CC(=O)N[C@@H](Cc3cc(F)cc(F)c3)c3ncccc3-c3ccc(F)c(C(N)=O)c3)c3ccccc3n2n1 [Example 600, (S)-5-(2-(2-(3,5-difluorophenyl)-1-(2-(2-methyl-4H-benzo[4,5]imidazo[1,2-b][1,2,4]triazol-4-yl)acetamido)ethyl)pyridin-3-yl)-2-fluorobenzamide] | – | – | 9% | > 53200 nM
25 | COc1cccc(CC(=O)N[C@@H](Cc2cc(F)cc(F)c2)c2ncccc2-c2cccc(C(N)=O)c2)c1 [Example 601, (S)-3-(2-(2-(3,5-difluorophenyl)-1-(2-(3-methoxyphenyl)acetamido)ethyl)pyridin-3-yl)benzamide] | – | – | 22% | 41900 nM
